{
  "source": "PubChem BioAssay AID463199",
  "about": "(Broad Institute, 2010)",
  "system": "S. cerevisiae Burl-1 ts mutant growth, BacTiter-Glo, 38.5C 24 h",
  "experiment": "restored growth of temperature-sensitive Burl-1 yeast – whole organism, S. cerevisiae, Burl-1 ts mutant, luminescence, counter-screen for SUMOylation pathway inhibitor project, dose response (AID 463199)",
  "note": "Activity calls are given as the source filed them.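 How the source made its calls: active means AC50, the dose giving half-maximal effect, exceeds a fixed cutoff for a compound that rescues yeast growth under heat; inactive means the rest, inconclusive results apart.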",
  "data": [
    {"compound": "CSc1cccc(NC(=S)N2CCCN(Cc3ccccc3F)C2)c1", "values": [
      {"measurement": "AC50", "value": "> 42 µM (inactive)"}
    ]},
    {"compound": "O=C(O)CCC(NC(=O)c1ccc(Cl)cc1)C(=O)O", "note": "(stereo unspecified)", "values": [
      {"measurement": "AC50", "value": "> 42 µM (inactive)"}
    ]},
    {"compound": "CC(NC(=O)c1cccs1)c1ccc(Br)cc1", "note": "(stereo unspecified)", "values": [
      {"measurement": "AC50", "value": "> 42 µM (inactive)"}
    ]},
    {"compound": "CC1C(=O)CC(c2ccccc2)N(C)C1c1ccccc1", "note": "(stereo unspecified)", "values": [
      {"measurement": "AC50", "value": "> 42 µM (inactive)"}
    ]},
    {"compound": "COCC(C)n1c(-c2ccc3c(c2)NC(=O)CO3)csc1=Nc1ccc(OC(F)F)cc1", "note": "(stereo unspecified)", "values": [
      {"measurement": "AC50", "value": "> 42 µM (inactive)"}
    ]},
    {"compound": "COc1ccc(S(=O)(=O)N2CCCOC2CNC(=O)C(=O)NCCCN2CCOCC2)cc1C", "note": "(stereo unspecified)", "values": [
      {"measurement": "AC50", "value": "> 42 µM (inactive)"}
    ]},
    {"compound": "COc1cccc(OC)c1OCC(O)CN1CCN(c2ccccc2)CC1", "note": "(stereo unspecified)", "values": [
      {"measurement": "AC50", "value": "> 42 µM (inactive)"}
    ]},
    {"compound": "Cc1c(Cl)cccc1NC(=O)Cn1c(CCC(=O)O)ccc1-c1ccccc1", "values": [
      {"measurement": "AC50", "value": "> 42 µM (inactive)"}
    ]},
    {"compound": "CC1(C)CC(=O)C(C(=O)c2ccccc2)C(=O)C1Cl", "note": "(stereo unspecified)", "values": [
      {"measurement": "AC50", "value": "> 42 µM (inactive)"}
    ]},
    {"compound": "Cc1ccc(SCC(=O)O/N=C(\\N)c2cccc([N+](=O)[O-])c2)cc1", "values": [
      {"measurement": "AC50", "value": "> 42 µM (inactive)"}
    ]},
    {"compound": "CCN(CC)C(=O)CSc1nnc(SCc2ccc(Cl)cc2)s1", "values": [
      {"measurement": "AC50", "value": "> 42 µM (inactive)"}
    ]},
    {"compound": "O=c1[nH]cnc2ccc([N+](=O)[O-])cc12", "values": [
      {"measurement": "AC50", "value": "> 42 µM (inactive)"}
    ]},
    {"compound": "Cc1ccc(NC2CC(=O)N(c3ccc(N4CCCCC4)cc3)C2=O)cc1", "note": "(stereo unspecified)", "values": [
      {"measurement": "AC50", "value": "> 21 µM (inactive)"}
    ]},
    {"compound": "O=C(O)/C=C/c1cccnc1", "values": [
      {"measurement": "AC50", "value": "> 42 µM (inactive)"}
    ]},
    {"compound": "O=C(c1cccs1)N(C(=O)c1cccs1)c1ccc(Br)cn1", "values": [
      {"measurement": "AC50", "value": "> 42 µM (inactive)"}
    ]},
    {"compound": "CC(=O)c1cc(C)ccc1OC(=O)c1ccco1", "values": [
      {"measurement": "AC50", "value": "> 42 µM (inactive)"}
    ]},
    {"compound": "O=C1C2CCCN2C(=S)N1C1CCCCC1", "note": "(stereo unspecified)", "values": [
      {"measurement": "AC50", "value": "> 42 µM (inactive)"}
    ]},
    {"compound": "CCOC(=O)C1CCN(C(=O)COc2ccc(S(=O)(=O)N3CCOCC3)cc2C)CC1", "values": [
      {"measurement": "AC50", "value": "> 42 µM (inactive)"}
    ]},
    {"compound": "NC(=O)C1CCCN(C(=S)Nc2cccc3ccccc23)C1", "note": "(stereo unspecified)", "values": [
      {"measurement": "AC50", "value": "> 42 µM (inactive)"}
    ]},
    {"compound": "COc1ccc(OCC(O)CN2C(=O)NC(C)(C)C2=O)cc1", "note": "(stereo unspecified)", "values": [
      {"measurement": "AC50", "value": "> 42 µM (inactive)"}
    ]},
    {"compound": "Cc1sc(NC(=O)c2ccc(F)cc2)c(CN2CCCCCC2)c1C", "values": [
      {"measurement": "AC50", "value": "> 42 µM (inactive)"}
    ]},
    {"compound": "Cc1ccccc1C(=O)/C=C1\\NC(=O)CS1", "values": [
      {"measurement": "AC50", "value": "> 21 µM (inactive)"}
    ]},
    {"compound": "CCc1c(C)c2ccc(OCC(=O)OC(C)C)c(C)c2oc1=O", "values": [
      {"measurement": "AC50", "value": "> 42 µM (inactive)"}
    ]},
    {"compound": "Cc1ccccc1P(=O)(CO)c1ccccc1C", "values": [
      {"measurement": "AC50", "value": "> 42 µM (inactive)"}
    ]},
    {"compound": "CCOc1ccc2[nH]c(=O)c(CN(Cc3ccco3)C(CC)c3nnnn3Cc3ccccc3)cc2c1", "note": "(stereo unspecified)", "values": [
      {"measurement": "AC50", "value": "> 42 µM (inactive)"}
    ]},
    {"compound": "Cc1n[nH]c(=O)nc1NCc1ccc(Cl)cc1", "values": [
      {"measurement": "AC50", "value": "> 42 µM (inactive)"}
    ]},
    {"compound": "O=C(Nc1nccs1)C1CCN(S(=O)(=O)c2ccc(Cl)c(C(F)(F)F)c2)CC1", "values": [
      {"measurement": "AC50", "value": "> 42 µM (inactive)"}
    ]},
    {"compound": "CCCCc1ccc(NC(=S)NCc2cccs2)cc1", "values": [
      {"measurement": "AC50", "value": "> 42 µM (inactive)"}
    ]},
    {"compound": "CN1CCCC(n2nc(Cc3ccc(Cl)cc3)c3ccccc3c2=O)CC1", "note": "(stereo unspecified)", "values": [
      {"measurement": "AC50", "value": "> 42 µM (inactive)"}
    ]},
    {"compound": "CN(C)CCNC(=O)c1scc2c1CCCC2", "values": [
      {"measurement": "AC50", "value": "> 42 µM (inactive)"}
    ]},
    {"compound": "C[C@@]12C(=O)Nc3cc(Cl)ccc3C(=O)N1[C@H]1c3ccccc3OC[C@@H]1[C@@H]2c1ccccc1", "values": [
      {"measurement": "AC50", "value": "> 42 µM (inactive)"}
    ]},
    {"compound": "COc1ccc(/C=C2/SC(=O)N(NS(=O)(=O)c3ccccc3)C2=S)cc1OC", "values": [
      {"measurement": "AC50", "value": "> 42 µM (inactive)"}
    ]},
    {"compound": "O=C1OC(Cc2ccccn2)C(O)=C1C1=NCCCN1", "note": "(stereo unspecified)", "values": [
      {"measurement": "AC50", "value": "> 42 µM (inactive)"}
    ]},
    {"compound": "COC(C(=O)Nc1ccnn1C1CCN(Cc2cnn(C)c2)CC1)c1ccccc1", "note": "(stereo unspecified)", "values": [
      {"measurement": "AC50", "value": "> 42 µM (inactive)"}
    ]},
    {"compound": "Cc1cc([N+](=O)[O-])ccc1NC(=O)CSc1nccc(=O)[nH]1", "values": [
      {"measurement": "AC50", "value": "> 42 µM (inactive)"}
    ]},
    {"compound": "CCOc1ccccc1/C=N\\Nc1cnn(Cc2ccccc2)c(=O)c1Cl", "values": [
      {"measurement": "AC50", "value": "> 42 µM (inactive)"}
    ]},
    {"compound": "COCC(C)n1c(SCC(=O)NNC(=O)c2ccccc2)nc2ccccc2c1=O", "note": "(stereo unspecified)", "values": [
      {"measurement": "AC50", "value": "> 42 µM (inactive)"}
    ]},
    {"compound": "CCNC(=S)Nc1ccc(C)c(S(=O)(=O)Nc2ccccc2OC)c1", "values": [
      {"measurement": "AC50", "value": "> 42 µM (inactive)"}
    ]},
    {"compound": "O=C1c2cccc3c(N4CCCCC4)ccc(c23)C(=O)N1CCO", "values": [
      {"measurement": "AC50", "value": "> 42 µM (inactive)"}
    ]},
    {"compound": "COC(=O)c1ccccc1N(C)S(C)(=O)=O", "values": [
      {"measurement": "AC50", "value": "> 42 µM (inactive)"}
    ]},
    {"compound": "CCCNCc1cc(OCC)c(OCC(N)=O)cc1Br", "values": [
      {"measurement": "AC50", "value": "> 42 µM (inactive)"}
    ]}
  ]
}
